Assay [1] deals with T1, Muscarinic acetylcholine receptor M1 (Homo sapiens, UniProt P11229).
T1 sequence (P11229 whole entry): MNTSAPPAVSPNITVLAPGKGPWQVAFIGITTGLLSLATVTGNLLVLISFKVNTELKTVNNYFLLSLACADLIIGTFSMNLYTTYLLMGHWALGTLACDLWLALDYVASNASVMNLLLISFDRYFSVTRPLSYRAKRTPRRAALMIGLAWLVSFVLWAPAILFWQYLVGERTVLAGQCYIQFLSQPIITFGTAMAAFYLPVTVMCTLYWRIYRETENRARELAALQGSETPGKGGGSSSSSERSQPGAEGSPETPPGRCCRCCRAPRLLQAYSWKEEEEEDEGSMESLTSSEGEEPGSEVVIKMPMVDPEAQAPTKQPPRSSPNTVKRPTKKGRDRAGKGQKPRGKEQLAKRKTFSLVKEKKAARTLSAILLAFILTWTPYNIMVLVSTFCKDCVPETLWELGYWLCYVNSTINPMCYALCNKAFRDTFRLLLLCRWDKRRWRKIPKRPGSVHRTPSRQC
The format is functional, cell-based.

In assay [2] the target is T1, Muscarinic acetylcholine receptor M1. Type of assay: functional.
The target in assay [3] is 5-hydroxytryptamine receptor 2B (Homo sapiens, UniProt P41595). The format is functional, cell-based.
5-hydroxytryptamine receptor 2B, sequence (P41595 whole entry): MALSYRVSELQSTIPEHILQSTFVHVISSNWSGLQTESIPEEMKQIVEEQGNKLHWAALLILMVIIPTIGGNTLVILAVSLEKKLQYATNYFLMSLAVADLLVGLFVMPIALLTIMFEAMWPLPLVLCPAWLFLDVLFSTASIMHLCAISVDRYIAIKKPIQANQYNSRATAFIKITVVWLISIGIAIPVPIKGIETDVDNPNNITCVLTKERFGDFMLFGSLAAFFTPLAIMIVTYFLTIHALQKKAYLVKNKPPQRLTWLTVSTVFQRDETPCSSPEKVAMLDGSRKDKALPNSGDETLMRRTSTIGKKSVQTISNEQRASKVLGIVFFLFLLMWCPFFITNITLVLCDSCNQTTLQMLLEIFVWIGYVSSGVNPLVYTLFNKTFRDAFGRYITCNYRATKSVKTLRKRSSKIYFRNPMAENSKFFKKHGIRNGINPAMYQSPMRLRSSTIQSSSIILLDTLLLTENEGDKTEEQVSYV
Assay [4] deals with T2, Prostaglandin G/H synthase 1 (Rattus norvegicus, UniProt Q63921).
T2 sequence (Q63921 whole entry): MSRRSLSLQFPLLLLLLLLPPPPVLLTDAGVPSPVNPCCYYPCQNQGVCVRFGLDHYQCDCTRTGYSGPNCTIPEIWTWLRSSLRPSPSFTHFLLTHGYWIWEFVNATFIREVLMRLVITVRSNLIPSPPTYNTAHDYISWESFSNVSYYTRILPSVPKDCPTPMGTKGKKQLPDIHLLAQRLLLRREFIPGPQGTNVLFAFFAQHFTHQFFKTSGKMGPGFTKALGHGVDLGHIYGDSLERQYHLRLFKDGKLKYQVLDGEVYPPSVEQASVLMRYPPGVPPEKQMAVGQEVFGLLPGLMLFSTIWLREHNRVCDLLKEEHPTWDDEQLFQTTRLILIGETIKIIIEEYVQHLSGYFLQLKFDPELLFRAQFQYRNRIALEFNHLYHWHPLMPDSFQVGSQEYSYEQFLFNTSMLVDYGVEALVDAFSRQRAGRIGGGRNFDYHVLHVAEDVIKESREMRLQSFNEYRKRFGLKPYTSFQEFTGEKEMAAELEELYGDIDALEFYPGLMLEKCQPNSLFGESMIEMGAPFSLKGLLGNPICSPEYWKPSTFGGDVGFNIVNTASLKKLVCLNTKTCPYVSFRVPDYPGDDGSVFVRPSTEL
The format is functional.

In assay [5] the target is Sodium-dependent dopamine transporter (Homo sapiens, UniProt Q01959).
Sodium-dependent dopamine transporter, sequence (Q01959 whole entry): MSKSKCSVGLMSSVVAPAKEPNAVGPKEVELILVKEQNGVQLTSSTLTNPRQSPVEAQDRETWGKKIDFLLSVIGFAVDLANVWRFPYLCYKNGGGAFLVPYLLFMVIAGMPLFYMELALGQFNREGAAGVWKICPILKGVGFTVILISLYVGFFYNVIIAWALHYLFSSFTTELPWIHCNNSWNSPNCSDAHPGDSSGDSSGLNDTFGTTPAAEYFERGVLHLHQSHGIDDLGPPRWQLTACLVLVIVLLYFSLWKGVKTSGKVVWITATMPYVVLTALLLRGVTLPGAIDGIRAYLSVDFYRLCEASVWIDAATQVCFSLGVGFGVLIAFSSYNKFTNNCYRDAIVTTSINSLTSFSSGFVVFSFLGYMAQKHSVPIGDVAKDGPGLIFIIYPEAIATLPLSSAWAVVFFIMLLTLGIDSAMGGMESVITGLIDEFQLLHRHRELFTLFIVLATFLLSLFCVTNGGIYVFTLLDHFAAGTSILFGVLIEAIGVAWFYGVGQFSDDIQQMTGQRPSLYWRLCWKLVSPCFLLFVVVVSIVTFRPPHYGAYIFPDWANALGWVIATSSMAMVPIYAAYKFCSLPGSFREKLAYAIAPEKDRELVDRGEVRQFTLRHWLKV
The next assay concerns the target D(1A) dopamine receptor (Homo sapiens, UniProt P21728). The format is functional, cell-based.
Assay [6] addresses Gamma-aminobutyric acid receptor subunit alpha-1 (Rattus norvegicus, UniProt P62813). The format is functional.
Assay [7] addresses Glutamate receptor ionotropic, NMDA 1 (Rattus norvegicus, UniProt P35439).
A further assay addresses Histamine H2 receptor (Homo sapiens, UniProt P25021). Type of assay: functional, cell-based.
The target in assay [8] is T3, 5-hydroxytryptamine receptor 1A (Homo sapiens, UniProt P08908).
T3 sequence (P08908 whole entry): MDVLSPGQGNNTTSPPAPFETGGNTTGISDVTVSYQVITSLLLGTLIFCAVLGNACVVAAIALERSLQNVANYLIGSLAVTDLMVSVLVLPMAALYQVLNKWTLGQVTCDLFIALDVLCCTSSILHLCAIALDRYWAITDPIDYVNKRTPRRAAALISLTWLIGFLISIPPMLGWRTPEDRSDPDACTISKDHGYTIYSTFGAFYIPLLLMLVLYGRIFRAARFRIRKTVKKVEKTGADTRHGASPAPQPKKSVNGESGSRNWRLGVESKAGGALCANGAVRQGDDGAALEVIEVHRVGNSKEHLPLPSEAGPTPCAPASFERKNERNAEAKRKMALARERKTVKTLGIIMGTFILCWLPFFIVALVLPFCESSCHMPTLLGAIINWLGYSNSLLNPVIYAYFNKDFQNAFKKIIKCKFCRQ
The format is functional, cell-based.

Assay [9] deals with T4, 5-hydroxytryptamine receptor 3A (Homo sapiens, UniProt P46098).
T4 sequence (P46098 whole entry): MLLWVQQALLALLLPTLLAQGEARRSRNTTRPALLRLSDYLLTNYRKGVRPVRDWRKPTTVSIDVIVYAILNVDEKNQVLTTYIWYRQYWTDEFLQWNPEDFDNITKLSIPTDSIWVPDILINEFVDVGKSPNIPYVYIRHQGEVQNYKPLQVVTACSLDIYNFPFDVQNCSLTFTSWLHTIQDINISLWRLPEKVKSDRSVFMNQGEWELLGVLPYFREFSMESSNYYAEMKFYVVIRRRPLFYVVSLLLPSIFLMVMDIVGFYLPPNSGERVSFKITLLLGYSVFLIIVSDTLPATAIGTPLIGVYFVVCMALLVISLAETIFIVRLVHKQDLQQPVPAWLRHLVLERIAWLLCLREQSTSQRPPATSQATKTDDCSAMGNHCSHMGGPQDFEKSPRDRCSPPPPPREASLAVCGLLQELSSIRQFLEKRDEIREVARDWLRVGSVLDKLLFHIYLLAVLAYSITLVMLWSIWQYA
The format is functional.

Assay [10] has as its target Kappa-type opioid receptor (Homo sapiens, UniProt P41145).
The target of assay [11] is T5, Alpha-1A adrenergic receptor (Homo sapiens, UniProt P35348).
T5 sequence (P35348 whole entry): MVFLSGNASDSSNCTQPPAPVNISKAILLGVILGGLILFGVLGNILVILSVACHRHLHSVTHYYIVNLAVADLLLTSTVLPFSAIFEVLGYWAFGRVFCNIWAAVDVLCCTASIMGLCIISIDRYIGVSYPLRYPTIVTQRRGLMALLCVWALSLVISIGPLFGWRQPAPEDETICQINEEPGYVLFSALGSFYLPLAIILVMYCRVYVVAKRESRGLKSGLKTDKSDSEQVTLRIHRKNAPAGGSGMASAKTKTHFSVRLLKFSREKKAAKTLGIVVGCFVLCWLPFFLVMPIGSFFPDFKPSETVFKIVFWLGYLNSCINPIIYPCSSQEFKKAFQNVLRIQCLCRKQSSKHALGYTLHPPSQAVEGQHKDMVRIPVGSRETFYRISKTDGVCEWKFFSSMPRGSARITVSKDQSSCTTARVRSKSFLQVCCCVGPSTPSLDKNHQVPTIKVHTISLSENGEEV
Type of assay: functional, cell-based.

Experimental findings from ChEMBL document CHEMBL5291721, “A preclinical secondary pharmacology resource illuminates target-adverse drug reaction associations of marketed drugs” (Nat Commun, 2023) are described below.

By AC50 is commonly meant the concentration at which the activity in the assay is half-maximal. A low value points to greater potency.

Where only a bound is given, the exact number is not on record here.
Further: assay procedure not described here.

D(1A) dopamine receptor, sequence (P21728 whole entry): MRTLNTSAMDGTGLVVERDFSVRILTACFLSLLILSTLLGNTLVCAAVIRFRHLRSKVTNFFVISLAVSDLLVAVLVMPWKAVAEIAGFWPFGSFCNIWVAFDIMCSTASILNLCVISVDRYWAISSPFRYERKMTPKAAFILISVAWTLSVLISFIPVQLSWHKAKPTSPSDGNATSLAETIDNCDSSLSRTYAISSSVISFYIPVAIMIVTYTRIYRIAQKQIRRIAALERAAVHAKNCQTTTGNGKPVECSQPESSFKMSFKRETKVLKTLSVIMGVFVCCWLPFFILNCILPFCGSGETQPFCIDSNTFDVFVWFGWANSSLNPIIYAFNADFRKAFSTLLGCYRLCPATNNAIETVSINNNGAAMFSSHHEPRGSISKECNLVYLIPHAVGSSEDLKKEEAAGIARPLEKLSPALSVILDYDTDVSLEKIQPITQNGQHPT
Histamine H2 receptor, sequence (P25021 whole entry): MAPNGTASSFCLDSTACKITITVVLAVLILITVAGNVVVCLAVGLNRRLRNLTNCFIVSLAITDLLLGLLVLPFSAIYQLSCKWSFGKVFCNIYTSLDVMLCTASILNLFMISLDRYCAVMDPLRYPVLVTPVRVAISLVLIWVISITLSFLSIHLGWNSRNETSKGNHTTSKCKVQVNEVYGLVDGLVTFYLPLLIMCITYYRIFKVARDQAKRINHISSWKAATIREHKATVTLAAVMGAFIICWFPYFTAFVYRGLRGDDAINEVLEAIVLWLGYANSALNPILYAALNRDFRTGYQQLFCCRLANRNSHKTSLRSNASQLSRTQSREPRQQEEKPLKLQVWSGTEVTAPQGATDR
Gamma-aminobutyric acid receptor subunit alpha-1, sequence (P62813 whole entry): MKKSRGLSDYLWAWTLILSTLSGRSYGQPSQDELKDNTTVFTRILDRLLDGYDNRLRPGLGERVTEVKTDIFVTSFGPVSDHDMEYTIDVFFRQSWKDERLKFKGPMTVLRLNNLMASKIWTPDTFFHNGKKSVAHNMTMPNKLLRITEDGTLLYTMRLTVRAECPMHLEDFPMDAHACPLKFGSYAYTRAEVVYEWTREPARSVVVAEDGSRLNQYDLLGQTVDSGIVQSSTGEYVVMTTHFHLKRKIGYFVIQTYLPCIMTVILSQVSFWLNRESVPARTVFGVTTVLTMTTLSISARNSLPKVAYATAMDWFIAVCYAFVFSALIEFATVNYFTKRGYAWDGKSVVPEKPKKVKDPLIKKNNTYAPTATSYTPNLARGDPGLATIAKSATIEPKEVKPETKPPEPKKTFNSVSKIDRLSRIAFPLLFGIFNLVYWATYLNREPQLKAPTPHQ
Kappa-type opioid receptor, sequence (P41145 whole entry): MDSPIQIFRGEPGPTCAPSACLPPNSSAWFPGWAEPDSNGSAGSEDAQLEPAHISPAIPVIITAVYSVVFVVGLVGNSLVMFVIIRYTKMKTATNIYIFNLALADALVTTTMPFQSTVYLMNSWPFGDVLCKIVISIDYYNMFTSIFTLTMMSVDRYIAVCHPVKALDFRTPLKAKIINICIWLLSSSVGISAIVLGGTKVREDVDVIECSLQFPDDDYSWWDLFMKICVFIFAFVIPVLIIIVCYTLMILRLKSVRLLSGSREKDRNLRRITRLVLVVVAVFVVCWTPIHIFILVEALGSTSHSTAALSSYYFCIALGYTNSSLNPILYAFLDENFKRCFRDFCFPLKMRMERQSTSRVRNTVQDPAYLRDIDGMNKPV

With `CS(=O)(=O)Nc1cc2occ(NC=O)c(=O)c2cc1Oc1ccccc1` [IGURATIMOD], the AC50 in [1], in assay [2], in assay [3], in assay [4] and in assay [5] was greater than 30 µM throughout.
`COc1ccc(CCC(C)NCC(O)c2ccc(O)c([S+](C)[O-])c2)cc1` (stereo not given) [SULFINALOL] yielded an AC50 in assay [1] greater than 30 µM.
Molecule `O=C1CN=C(c2ccccc2)c2c(sc3c2CCCC3)N1` [BENTAZEPAM] returned an AC50 in [1] greater than 30 µM.
`O=C(O)CCCN1CCC(O[C@@H](c2ccc(Cl)cc2)c2ccccn2)CC1` [BEPOTASTINE] yielded an AC50 in assay [1] greater than 30 µM.
In turn, `CC(=O)OC(C)C[N+](C)(C)C` (stereo not given) [METHACHOLINE] displayed an AC50 in assay [1] of 0.0079 µM.
In the case of `O=C(O)c1cccc(-c2noc(-c3ccccc3F)n2)c1`, the AC50 in [1] was greater than 30 µM; in assay [2], greater than 10 µM; in [4], greater than 30 µM; in assay [5] it was greater than 30 µM.
`C[C@@H]1O[C@@H](OC[C@H]2O[C@@H](Oc3c(-c4ccc(OCCO)c(OCCO)c4)oc4cc(OCCO)cc(O)c4c3=O)[C@H](O)[C@@H](O)[C@@H]2O)[C@H](O)[C@H](O)[C@H]1O` [TROXERUTIN] had an AC50 in assay [1] greater than 30 µM.
Regarding `O=C(O)CCn1c2c(c3ccccc31)C[C@H](NS(=O)(=O)c1ccc(F)cc1)CC2` [RAMATROBAN], the AC50 in assay [1] was greater than 30 µM; in [2], greater than 10 µM; at D(1A) dopamine receptor it was greater than 30 µM; in assay [6], greater than 10 µM; in assay [7], greater than 10 µM; at Histamine H2 receptor it was greater than 30 µM. Further, the AC50 in assay [8] is greater than 10 µM; in [3], greater than 10 µM; in [9], greater than 30 µM; in [10], greater than 10000 nM; in assay [4] it was greater than 30 µM; in [5], greater than 30 µM.
The molecule `CCC(Cc1c(I)cc(I)c(N)c1I)C(=O)O` (stereo not given) [IOPANOIC ACID] showed an AC50 in assay [1] greater than 30 µM.
On the same count and under the same terms, for `O=[N+]([O-])c1cncn1CCN1CCOCC1` [NIMORAZOLE] the value was greater than 30 µM.
In the case of `O=C(c1ccc(F)c(F)c1Nc1ccc(I)cc1F)N1CC(O)([C@@H]2CCCCN2)C1` [COBIMETINIB], half-maximal activity in assay [1] (AC50) was put at 17.4 µM. This counts as double-digit micromolar.
Consider `NCc1ccccc1CC(=O)N[C@@H]1C(=O)N2C(C(=O)O)=C(CSc3nnnn3CC(=O)O)CS[C@H]12` [CEFORANIDE], for which the AC50 in assay [1] was greater than 30 µM.
Consider `C[C@@H]1C[C@H]2[C@@H]3C[C@H](F)C4=CC(=O)C=C[C@]4(C)[C@@]3(F)[C@@H](O)C[C@]2(C)[C@@]1(O)C(=O)COC(=O)C(C)(C)C` [FLUMETHASONE PIVALATE], for which the AC50 in assay [1] was greater than 30 µM.
Same read-out and setting: with `CCCC1C(=O)N2C(N(C)C)=Nc3ccc(C)cc3N2C1=O` (stereo not given) [APAZONE] the figure was greater than 30 µM; with `CCC1(c2cccc(O)c2)CCCCN(C)C1` (stereo not given) [MEPTAZINOL], greater than 30 µM; with `CC[C@@H]1/C=C(\C)C[C@H](C)C[C@H](OC)[C@H]2O[C@@](O)(C(=O)C(=O)N3CCCC[C@H]3C(=O)O[C@H](/C(C)=C/[C@@H]3CC[C@H](Cl)[C@H](OC)C3)[C@H](C)[C@@H](O)CC1=O)[C@H](C)C[C@@H]2OC` [PIMECROLIMUS], greater than 30 µM.
Molecule `NS(=O)(=O)c1cc2c(cc1Cl)NC(C1CC3C=CC1C3)NS2(=O)=O` (stereo not given) [CYCLOTHIAZIDE] returned an AC50 in assay [1] greater than 30 µM.
Still for that read-out and setting: with `CC(C(=O)O)c1ccc2c(c1)Cc1cccnc1O2` (stereo not given) [PRANOPROFEN] the figure was greater than 30 µM.
`Nc1ccc(C(=O)O)cc1` [AMINOBENZOIC ACID] gave an AC50 in [1] greater than 30 µM.
Molecule `COc1cc2c(cc1OC)[C@H]1C[C@@H](OC(=O)[C@@H](N)C(C)C)[C@H](CC(C)C)CN1CC2` [VALBENAZINE] came in with an AC50 in assay [1] greater than 30 µM.
For the molecule `O=C(Nc1ccccc1)OCC(CN1CCCCC1)OC(=O)Nc1ccccc1` (stereo not given) [DIPERODON], the AC50 in assay [1] was greater than 30 µM; in [2], greater than 10 µM; at D(1A) dopamine receptor it was greater than 10 µM; in assay [6], greater than 10 µM; in assay [7], greater than 10 µM; on Histamine H2 receptor it was greater than 10 µM. Also, the AC50 in assay [8] is greater than 10 µM; in assay [3], 15 µM; in assay [9], greater than 10 µM; in assay [10] it was 1420 nM; in [4], greater than 30 µM; in assay [5], 6.69 µM. This molecule showed an AC50 in [11] greater than 30 µM.
Take `NC(=O)c1cccc2cn(-c3ccc([C@@H]4CCCNC4)cc3)nc12` [NIRAPARIB]: in assay [1], the AC50 was greater than 30 µM.
On to `COc1cc(NCc2ccc3nc(N)nc(N)c3c2C)cc(OC)c1OC` [TRIMETREXATE], for which, in assay [1], the AC50 is greater than 30 µM.
Molecule `CC/C=C\C/C=C\C/C=C\C/C=C\C/C=C\CCCC(=O)O` [ICOSAPENT] came in with an AC50 in assay [1] greater than 30 µM.
For `CC(C)Cc1ccc(C(C)C(=O)NO)cc1` (stereo not given) [IBUPROXAM], in assay [1], the AC50 was greater than 30 µM.
